Results on eight compounds are retold here after patent US10329283B2, “G protein-coupled receptor kinase inhibitors and methods for use of the same” (THE REGENTS OF THE UNIVERSITY OF MICHIGAN, priority 2015, dated 2019).

The target in one data set is T1, GRK1 (Bos taurus, UniProt P28327).
T1 sequence (P28327 1-535 limits assumed): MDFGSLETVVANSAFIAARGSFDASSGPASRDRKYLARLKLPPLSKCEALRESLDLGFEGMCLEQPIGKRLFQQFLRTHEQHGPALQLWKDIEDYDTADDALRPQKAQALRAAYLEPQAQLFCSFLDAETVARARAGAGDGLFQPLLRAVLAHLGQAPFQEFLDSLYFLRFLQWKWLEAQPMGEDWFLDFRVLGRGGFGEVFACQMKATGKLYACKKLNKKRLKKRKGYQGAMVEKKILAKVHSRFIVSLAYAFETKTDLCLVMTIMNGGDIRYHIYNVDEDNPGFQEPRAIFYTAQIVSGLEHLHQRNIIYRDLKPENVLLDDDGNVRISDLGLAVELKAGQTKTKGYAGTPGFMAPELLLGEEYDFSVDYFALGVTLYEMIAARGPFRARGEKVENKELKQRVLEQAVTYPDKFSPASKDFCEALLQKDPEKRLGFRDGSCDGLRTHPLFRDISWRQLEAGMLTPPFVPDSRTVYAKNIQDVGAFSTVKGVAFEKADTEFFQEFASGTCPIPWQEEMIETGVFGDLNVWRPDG
Description: GRK1 kinetic assay for inhibition of GRKs (phosphorimaging). The data set is classed as biochemical. To be noted: 50 nM GRK, 5 μM ATP, 500 nM bROS or tubulin, 5 min. How it is done:
(§1) The low salt concentration and DDM were used to maximize GRK activity and disrupt small molecule aggregates from forming, respectively. […] Data was analyzed and inhibition curves were fit via GraphPad Prism.

The target in data set [1] is T2, GRK2 (Homo sapiens, UniProt P25098).
T2 sequence (P25098 1-689): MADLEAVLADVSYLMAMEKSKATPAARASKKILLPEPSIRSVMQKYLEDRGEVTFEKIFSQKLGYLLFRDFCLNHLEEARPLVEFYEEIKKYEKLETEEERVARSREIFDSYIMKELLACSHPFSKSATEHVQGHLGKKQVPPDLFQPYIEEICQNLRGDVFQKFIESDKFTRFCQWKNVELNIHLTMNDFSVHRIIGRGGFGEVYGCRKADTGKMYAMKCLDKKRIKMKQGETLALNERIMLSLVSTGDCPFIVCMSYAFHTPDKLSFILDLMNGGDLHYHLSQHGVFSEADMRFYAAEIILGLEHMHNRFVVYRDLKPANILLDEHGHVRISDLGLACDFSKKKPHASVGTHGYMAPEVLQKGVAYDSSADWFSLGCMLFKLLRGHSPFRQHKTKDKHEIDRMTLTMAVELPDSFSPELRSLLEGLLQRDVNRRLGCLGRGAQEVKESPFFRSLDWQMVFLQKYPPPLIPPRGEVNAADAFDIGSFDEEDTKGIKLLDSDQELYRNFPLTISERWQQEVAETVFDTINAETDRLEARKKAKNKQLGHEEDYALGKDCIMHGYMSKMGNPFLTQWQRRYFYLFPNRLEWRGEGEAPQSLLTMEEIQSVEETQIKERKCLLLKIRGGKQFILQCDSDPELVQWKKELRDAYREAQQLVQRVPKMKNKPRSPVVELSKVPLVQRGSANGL
Description: GRK2 kinetic assay for inhibition of GRKs (phosphorimaging). The conditions noted are these: 50 nM GRK, 5 μM ATP, 500 nM bROS or tubulin, 5 min. The data set is classed as biochemical. How it is done: as §1

In a further data set the target is GRK5 (Homo sapiens, UniProt P34947). Description: GRK5 kinetic assay for inhibition of GRKs (phosphorimaging). The data set is classed as biochemical. To be noted: 50 nM GRK, 5 μM ATP, 500 nM bROS or tubulin, 5 min. As for the experimental part: as §1
The conditions of data set [2]: in words; Thal et al., Mol Pharmacol 2011; cited from earlier work.
The target of data set [3] is T2, GRK2. To be noted: in words; Setyawan et al. 1999, Tesmer et al. 2010; cited from earlier work.

SMILES strings stand for the structures. Where a name gives a salt, the structure may show the parent alone.

Chain of GRK5 (P34947 whole entry, species assumed): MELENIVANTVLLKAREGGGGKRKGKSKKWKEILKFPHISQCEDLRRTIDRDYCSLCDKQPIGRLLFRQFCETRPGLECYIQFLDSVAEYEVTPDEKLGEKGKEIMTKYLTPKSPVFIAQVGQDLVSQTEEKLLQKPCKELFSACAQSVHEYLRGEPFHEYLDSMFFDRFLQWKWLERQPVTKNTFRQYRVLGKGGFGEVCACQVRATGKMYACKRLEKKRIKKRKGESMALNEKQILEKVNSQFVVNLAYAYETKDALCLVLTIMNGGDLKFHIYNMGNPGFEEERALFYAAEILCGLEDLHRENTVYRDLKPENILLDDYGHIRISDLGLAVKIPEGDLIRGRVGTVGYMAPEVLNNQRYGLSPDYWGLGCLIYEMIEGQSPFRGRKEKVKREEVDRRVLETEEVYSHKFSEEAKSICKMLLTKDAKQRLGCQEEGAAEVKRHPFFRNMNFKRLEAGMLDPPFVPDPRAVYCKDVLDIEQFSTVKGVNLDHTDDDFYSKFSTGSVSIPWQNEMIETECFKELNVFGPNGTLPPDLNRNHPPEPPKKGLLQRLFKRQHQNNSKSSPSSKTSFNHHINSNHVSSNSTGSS

On to `COc1cccc(OC)c1CNC(=O)c1cc([C@@H]2CCNC[C@H]2COc2ccc3c(c2)OCO3)ccc1F` [Example E15, 5-((3S,4R)-3-((benzo[d][1,3]dioxol-5-yloxy)methyl)piperidin-4-yl)-N-(2,6-dimethoxybenzyl)-2-fluorobenzamide hydrochloride], for which the IC50 (in general, the point on the concentration scale where inhibition reaches its midpoint) against GRK1 is 22 µM; on GRK2 [1], 1390 nM; at GRK5, more than 100 µM.

As for `O=C(NCc1c(Cl)cccc1Cl)c1cc([C@@H]2CCNC[C@H]2COc2ccc3c(c2)OCO3)ccc1F` [Example E16, 5-((3S,4R)-3-((benzo[d][1,3]dioxol-5-yloxy)methyl)piperidin-4-yl)-N-(2,6-dichlorobenzyl)-2-fluorobenzamide hydrochloride], the figures for the half-maximal inhibitory concentration (IC50) against GRK1, against GRK2 [1] and against GRK5 were 16.6 µM, 1210 nM and 33.6 µM, respectively.

Consider `Fc1ccc([C@@H]2CCNC[C@H]2COc2ccc3[nH]ncc3c2)cc1` [Example E18, 5-(((3S,4R)-4-(4-fluorophenyl)piperidin-3-yl)methoxy)-1H-indazole], for which the IC50 on GRK1 turned out to be 65.7 µM; against GRK2 [1], 70 nM; on GRK5 it was 12.8 µM.

With `Fc1ccc([C@@H]2CCNC[C@H]2COc2cc3cn[nH]c3cc2F)cc1` [Example E30, 6-fluoro-5-(((3S,4R)-4-(4-fluorophenyl)piperidin-3-yl)methoxy)-1H-indazole], the values for the half-maximal inhibitory concentration (IC50) at GRK1, at GRK2 [1] and on GRK5 were 3.67 µM, 140 nM and 0.82 µM, respectively.

Consider `COc1cccc(OC)c1CNC(=O)c1cc([C@@H]2CCNC[C@H]2COc2cc3cn[nH]c3cc2F)ccc1F` [Example E31, N-(2,6-dimethoxybenzyl)-2-fluoro-5-((3S,4R)-3-(((6-fluoro-1H-indazol-5-yl)oxy)methyl)piperidin-4-yl)benzamide], for which the figures for the 50% inhibitory concentration (IC50) at GRK1, at GRK2 [1] and at GRK5 were 40.1 µM, 400 nM and 8.12 µM, respectively.

`CN1CC[C@@H](c2ccc(F)cc2)[C@H](COc2ccc3[nH]ncc3c2)C1` [Example E32, 5-(((3S,4R)-4-(4-fluorophenyl)-1-methylpiperidin-3-yl)methoxy)-1H-indazole]: the half-inhibitory concentration (IC50) at GRK1 came to 51.8 µM; on GRK2 [1], 290 nM; at GRK5 it was 33 µM.

In the case of `CCCn1c(CNc2cccc(C(=O)NCc3c(F)cccc3F)c2)nnc1-c1ccncn1` [Takeda103A], the bioavailability result in data set [2] is on record as “poor bioavailability”.

In the case of `O=C(N[C@@H]1CNCCC[C@H]1OC(=O)c1cc(O)c(C(=O)c2c(O)cccc2C(=O)O)c(O)c1)c1ccc(O)cc1` [balanol], the “inhibition of GRK2” value at GRK2 [3] is reported as “low nanomolar range”.
